Laboratory results: PMC12649549, “Sequence Permutation Generated Lysine and Tryptophan-Rich Antimicrobial Peptides with Enhanced Therapeutic Index” (Antibiotics, 2025)
Where two headings read alike, the source gives them in different places.

What was measured:
[1] = test system: S. aureus ATCC 33593
Procedure, shortened: (§1)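 Broth microdilution per CLSI in Müller-Hinton broth and modified LYM broth (pH 7.4; variants with 50–300 mM NaCl, 0.5–2.5 mM MgCl2, or pH 6.5–4.5). Inoculum 5 × 10^5 CFU/mL; peptides tested at 0.78–50 µg/mL final. MIC read; three independent repeats.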

[2] = test system: A. baumannii 14B00100 (Acinetobacter sp., BCRC number 14B0100)
Procedure, shortened: as §1

[3] = test system: A. baumannii 14B0091 (Acinetobacter sp., BCRC number 14B0091)
Procedure, shortened: as §1

[4] = test system: S. aureus ATCC 33591
Procedure, shortened: as §1

[5] = test system: S. aureus ATCC 25923
Procedure, shortened: as §1

[6] = test system: Pseudomonas aeruginosa Migula (ATCC 27853)
Procedure, shortened: as §1

[7] = test system: Escherichia coli (ATCC 25922)
Procedure, shortened: as §1

[8] = LYM broth, 0 mM NaCl, 16 h, 37 °C
[9] = LYM broth, 50 mM NaCl, 16 h, 37 °C
[10] = LYM broth, 100 mM NaCl, 16 h, 37 °C
[11] = LYM broth, 200 mM (NaCl), 16 h, 37 °C
[12] = LYM broth, 300 mM (NaCl), 16 h, 37 °C
[13] = MH broth, 5 × 10^5 CFU/mL, 16 h, 37 °C, repeated three times

With Ac-KKWRKWLKWLAKK-NH2 [W5K/A9W] the MIC [1, 8] was 3.13 µg/mL, the MIC ([1]; LYM broth, 0.5 mM MgCl2) was 3.13 µg/mL and the MIC ([1]; LYM broth, 1.5 mM MgCl2) was 3.13 µg/mL. It also gave an MIC ([1]; LYM broth, 2.5 mM MgCl2) of 3.13 µg/mL, an MIC [1, 9] of 3.13 µg/mL and an MIC [1, 10] of 3.13 µg/mL. The MIC [1, 11] was 6.25 µg/mL, the MIC [1, 12] was 12.5 µg/mL and the MIC ([1]; LYM broth, pH 4.5) was 3.13 µg/mL. It also gave an MIC ([1]; LYM broth, pH 5.5) of 3.13 µg/mL, an MIC ([1]; LYM broth, pH 6.5) of 3.13 µg/mL and an MIC [1, 13] of 12.5 µg/mL. It also gave an MIC [2, 8] of 1.56 µg/mL, an MIC ([2]; LYM broth, 0.5 mM MgCl2) of 1.56 µg/mL and an MIC ([2]; LYM broth, 1.5 mM MgCl2) of 1.56 µg/mL. The MIC ([2]; LYM broth, 2.5 mM MgCl2) was 1.56 µg/mL, the MIC [2, 9] was 1.56 µg/mL and the MIC [2, 10] was 1.56 µg/mL. The MIC [2, 11] was 1.56 µg/mL, the MIC [2, 12] was 1.56 µg/mL and the MIC ([2]; LYM broth, pH 4.5) was 1.56 µg/mL. It also gave an MIC ([2]; LYM broth, pH 5.5) of 1.56 µg/mL, an MIC ([2]; LYM broth, pH 6.5) of 1.56 µg/mL and an MIC [2, 13] of 1.56 µg/mL. The MIC [3, 8] was 1.56 µg/mL, the MIC ([3]; LYM broth, 0.5 mM MgCl2) was 1.56 µg/mL and the MIC ([3]; LYM broth, 1.5 mM MgCl2) was 1.56 µg/mL. For the same substance, the MIC ([3]; LYM broth, 2.5 mM MgCl2) was 1.56 µg/mL, the MIC [3, 9] was 1.56 µg/mL and the MIC [3, 10] was 1.56 µg/mL. The MIC [3, 11] was 1.56 µg/mL, the MIC [3, 12] was 1.56 µg/mL and the MIC ([3]; LYM broth, pH 4.5) was 1.56 µg/mL. For the same substance, the MIC ([3]; LYM broth, pH 5.5) was 1.56 µg/mL, the MIC ([3]; LYM broth, pH 6.5) was 1.56 µg/mL and the MIC [3, 13] was 1.56 µg/mL. For the same substance, the MIC [4, 8] was 3.13 µg/mL, the MIC ([4]; LYM broth, 0.5 mM MgCl2) was 3.13 µg/mL and the MIC ([4]; LYM broth, 1.5 mM MgCl2) was 3.13 µg/mL. For the same substance, the MIC ([4]; LYM broth, 2.5 mM MgCl2) was 3.13 µg/mL, the MIC [4, 9] was 3.13 µg/mL and the MIC [4, 10] was 6.25 µg/mL. For the same substance, the MIC [4, 11] was 6.25 µg/mL, the MIC [4, 12] was 12.5 µg/mL and the MIC ([4]; LYM broth, pH 4.5) was 3.13 µg/mL. It also gave an MIC ([4]; LYM broth, pH 5.5) of 3.13 µg/mL, an MIC ([4]; LYM broth, pH 6.5) of 3.13 µg/mL and an MIC [4, 13] of 12.5 µg/mL. For the same substance, the MIC [5, 8] was 1.56 µg/mL, the MIC ([5]; LYM broth, 0.5 mM MgCl2) was 1.56 µg/mL and the MIC ([5]; LYM broth, 1.5 mM MgCl2) was 3.13 µg/mL. For the same substance, the MIC ([5]; LYM broth, 2.5 mM MgCl2) was 3.13 µg/mL, the MIC [5, 9] was 1.56 µg/mL and the MIC [5, 10] was 3.13 µg/mL. The MIC [5, 11] was 3.13 µg/mL, the MIC [5, 12] was 6.25 µg/mL and the MIC ([5]; LYM broth, pH 4.5) was 3.13 µg/mL. It also gave an MIC ([5]; LYM broth, pH 5.5) of 1.56 µg/mL, an MIC ([5]; LYM broth, pH 6.5) of 1.56 µg/mL and an MIC [5, 13] of 3.13 µg/mL. The MIC [6, 8] was 1.56 µg/mL, the MIC ([6]; LYM broth, 0.5 mM MgCl2) was 1.56 µg/mL and the MIC ([6]; LYM broth, 1.5 mM MgCl2) was 3.13 µg/mL. For the same substance, the MIC ([6]; LYM broth, 2.5 mM MgCl2) was 3.13 µg/mL, the MIC [6, 9] was 1.56 µg/mL and the MIC [6, 10] was 1.56 µg/mL. The MIC [6, 11] was 3.13 µg/mL, the MIC [6, 12] was 6.25 µg/mL and the MIC ([6]; LYM broth, pH 4.5) was 1.56 µg/mL. For the same substance, the MIC ([6]; LYM broth, pH 5.5) was 1.56 µg/mL, the MIC ([6]; LYM broth, pH 6.5) was 1.56 µg/mL and the MIC [6, 13] was 3.13 µg/mL. The MIC [7, 8] was 1.56 µg/mL, the MIC ([7]; LYM broth, 0.5 mM MgCl2) was 3.13 µg/mL and the MIC ([7]; LYM broth, 1.5 mM MgCl2) was 3.13 µg/mL. For the same substance, the MIC ([7]; LYM broth, 2.5 mM MgCl2) was 6.25 µg/mL, the MIC [7, 9] was 1.56 µg/mL and the MIC [7, 10] was 3.13 µg/mL. It also gave an MIC [7, 11] of 3.13 µg/mL, an MIC [7, 12] of 12.5 µg/mL and an MIC ([7]; LYM broth, pH 4.5) of 1.56 µg/mL. For the same substance, the MIC ([7]; LYM broth, pH 5.5) was 1.56 µg/mL, the MIC ([7]; LYM broth, pH 6.5) was 1.56 µg/mL and the MIC [7, 13] was 3.13 µg/mL.
